One assay relates to Ramos cells. The assay can be described thus: Cytotoxicity in Ramos cells. The following applies: Homo sapiens, read-out: Ramos cell EC50. It is filed as cell-based. As for the experimental part:
(§1) Compounds in Example 4 above were tested for activity against F1F0-ATPase by measuring ATP synthesis. In addition, the compounds were assessed for cytotoxicity in Ramos cells. Inhibition of ATP synthesis by the F1F0-ATPase and cytotoxicity in Ramos cells were measured according to the procedures described in K. M. Johnson et al. Chemistry & Biology 2005, 12, 485-496.

The target of another assay is T1, F1F0-ATPase (Bos taurus, UniProt P13621).
T1 construct: from tissue
The assay is described as follows: Inhibition of ATP synthesis by the F1F0-ATPase. It is filed as biochemical. As for the experimental part:
as §1

One may read the EC50 as the concentration that produces a half-maximal response. For orientation: IC50 means the concentration that gives 50% inhibition. The low end stands for higher potency, the high end for lower potency.

As for `O=C(/N=C(/NCc1ccc(Cl)cc1)N[C@H]1CC[C@H](Nc2ncccn2)CC1)c1ccc(F)c(F)c1` [Compound 91], the EC50 with Ramos cells is less than 10 µM. For the same compound, the IC50 on F1F0-ATPase is less than 10 µM.

On to `O=C(/N=C(/Nc1cc(F)cc(Cl)c1)N[C@H]1CCCC[C@H]1O)c1ccc(F)c(F)c1` [Compound 128], for which the EC50 in the assay on Ramos cells was less than 10 µM. This compound also yielded an IC50 against F1F0-ATPase of less than 10 µM.

With `O=C(Cc1ccc(Cl)cc1)/N=C(\Nc1cc(F)cc(Cl)c1)N[C@H]1CC[C@H](O)CC1` [Compound 71], the EC50 with Ramos cells is more than 10 µM. The compound also registered an IC50 against F1F0-ATPase of less than 10 µM.

As to `O=C(/N=C(/Nc1ccccc1C1CC1)N[C@H]1CC[C@H](Nc2ncccn2)CC1)c1ccc(F)c(F)c1` [Compound 67], the EC50 with Ramos cells is more than 10 µM. This compound came in with an IC50 against F1F0-ATPase of less than 10 µM.

For the compound `O=C(/N=C(/Nc1ccc(Cl)c(F)c1)N[C@H]1CC[C@H](O)CC1)c1ccc(C(F)(F)F)cc1` [Compound 68], the EC50 in the assay with Ramos cells is less than 10 µM. Besides, the IC50 at F1F0-ATPase is less than 10 µM.

Regarding `CS(=O)(=O)N[C@H]1CC[C@H](N/C(=N/C(=O)c2ccc(F)c(F)c2)Nc2cccc(Cl)c2)CC1` [Compound 97], in the assay with Ramos cells, the EC50 was less than 10 µM. Besides, the IC50 on F1F0-ATPase was more than 10 µM.

As for `COC(=O)N[C@H]1CC[C@H](N/C(=N/C(=O)c2ccc(F)c(F)c2)Nc2cc(F)cc(Cl)c2)CC1` [Compound 11], in the assay on Ramos cells, the EC50 is less than 10 µM. Moreover, the IC50 on F1F0-ATPase is less than 10 µM.

Turning to `O=C(/N=C(/Nc1cccc(Cl)c1)N[C@H]1CC[C@H](Nc2ccccn2)CC1)c1ccc(F)c(F)c1` [Compound 88], the half-maximal effective concentration (EC50) in the assay on Ramos cells is less than 10 µM. The same compound came in with an IC50 on F1F0-ATPase of less than 10 µM.

With `CCOC(=O)N[C@H]1CC[C@H](N/C(=N\C(=O)c2ccc(F)c(F)c2)NC2CCC(C)CC2)CC1` (some centres unmarked) [Compound 77], in the assay with Ramos cells, the EC50 is less than 10 µM. Further, the IC50 against F1F0-ATPase was less than 10 µM.

For `CC1(N/C(=N/C(=O)c2ccc(C(F)(F)F)cc2)N[C@H]2CC[C@H](Nc3ncccn3)CC2)CCC1` [Compound 113], the EC50 with Ramos cells was less than 10 µM. This compound came in with an IC50 against F1F0-ATPase of less than 10 µM.

In the case of `O=C(/N=C(/Nc1cc(F)cc(Cl)c1)N[C@H]1CC[C@@H](C(=O)O)CC1)c1ccc(F)c(F)c1` [Compound 99], in the assay on Ramos cells, the EC50 was more than 10 µM. The same compound had an IC50 at F1F0-ATPase of more than 10 µM.

On to `O=C(/N=C(/Nc1cc(F)cc(Cl)c1)N[C@H]1CC[C@@H](Nc2ncccn2)CC1)c1ccc(F)c(F)c1` [Compound 120], for which, in the assay with Ramos cells, the EC50 is less than 10 µM. This compound gave an IC50 on F1F0-ATPase of less than 10 µM.

For the compound `O=C(/N=C(/NCc1ccc(C(F)(F)F)cc1)N[C@H]1CC[C@H](O)CC1)c1ccc(F)c(F)c1` [Compound 34], the EC50 in the assay with Ramos cells was less than 10 µM. The same compound displayed an IC50 against F1F0-ATPase of more than 10 µM.

Regarding `O=C(/N=C(/Nc1cccc(Cl)c1F)N[C@H]1CC[C@H](Nc2ncccn2)CC1)c1ccc(F)c(F)c1` [Compound 84], in the assay with Ramos cells, the concentration for a half-maximal effect (EC50) is more than 10 µM. This compound returned an IC50 against F1F0-ATPase of less than 10 µM.

Take `O=C(/N=C(/Nc1cc(F)cc(Cl)c1)N[C@H]1CCCC[C@@H]1O)c1ccc(F)c(F)c1` [Compound 129]: in the assay on Ramos cells, the half-maximal effective concentration (EC50) was less than 10 µM. This compound came in with an IC50 against F1F0-ATPase of less than 10 µM.

As to `O=C(/N=C(/Nc1cccc(C(F)(F)F)c1)N[C@H]1CC[C@H](O)CC1)c1cccc(Cl)c1` [Compound 24], in the assay with Ramos cells, the EC50 was less than 10 µM. Also, the IC50 on F1F0-ATPase is less than 10 µM.

On to `O=C(/N=C(/Nc1cccc(Cl)c1)N[C@H]1CC[C@H](O)CC1)c1cccc(Cl)c1` [Compound 25], for which the EC50 in the assay with Ramos cells is less than 10 µM. The IC50 at F1F0-ATPase is more than 10 µM.

For `CCOC(=O)N[C@H]1CC[C@H](N/C(=N\C(=O)c2ccc(F)c(F)c2)NCc2ccc(C(F)(F)F)cc2)CC1` [Compound 52], the EC50 in the assay on Ramos cells is less than 10 µM. Moreover, on F1F0-ATPase, the IC50 is less than 10 µM.

Turning to `CC1(N/C(=N/C(=O)c2ccc(C(F)(F)F)cc2)N[C@H]2CC[C@H](Nc3ncccn3)CC2)CCCC1` [Compound 121], in the assay on Ramos cells, the half-maximal effective concentration (EC50) was less than 10 µM. Moreover, the IC50 against F1F0-ATPase is less than 10 µM.

On to `O=C(/N=C(/NCc1ccc(Cl)c(F)c1)N[C@H]1CC[C@H](Nc2ncccn2)CC1)c1ccc(F)c(F)c1` [Compound 75], for which the EC50 in the assay on Ramos cells was less than 10 µM. Also, the IC50 on F1F0-ATPase is less than 10 µM.

For the compound `O=C(/N=C(/Nc1cc(F)cc(Cl)c1)N[C@H]1CC[C@H](Nc2cnccn2)CC1)c1ccc(F)c(F)c1` [Compound 117], the EC50 in the assay with Ramos cells is less than 10 µM. The compound also gave an IC50 at F1F0-ATPase of less than 10 µM.

`O=C(/N=C(/Nc1cccc(C(F)(F)F)c1)N[C@H]1CC[C@H](Nc2ncccn2)CC1)c1ccc(F)c(F)c1` [Compound 94]: the EC50 in the assay with Ramos cells is less than 10 µM. On F1F0-ATPase, this compound gave an IC50 of less than 10 µM.

Regarding `O=C(/N=C(/NC1CCCC1)N[C@H]1CC[C@H](Nc2ncccn2)CC1)c1ccc(C(F)(F)F)cc1` [Compound 114], the concentration for a half-maximal effect (EC50) in the assay with Ramos cells is less than 10 µM. At F1F0-ATPase, the IC50 was less than 10 µM.

Regarding `O=C(/N=C(/Nc1cc(F)cc(Cl)c1)NC1CCC(NC(=O)c2nccs2)CC1)c1ccc(F)c(F)c1` (centres unmarked) [Compound 168], the EC50 with Ramos cells was less than 10 µM. On F1F0-ATPase, this compound came in with an IC50 of less than 10 µM.

Regarding `O=C(/N=C(/Nc1cc(F)cc(Cl)c1)NC1CCC(NC(=O)c2ccccn2)CC1)c1ccc(F)c(F)c1` (centres unmarked) [Compound 171], the concentration for a half-maximal effect (EC50) in the assay on Ramos cells was less than 10 µM. In addition, the IC50 on F1F0-ATPase was less than 10 µM.

As for `CCNC(=O)[C@H]1CC[C@@H](N/C(=N\C(=O)c2ccc(F)c(F)c2)Nc2cc(F)cc(Cl)c2)CC1` [Compound 89], in the assay on Ramos cells, the EC50 was less than 10 µM. This compound also gave an IC50 against F1F0-ATPase of less than 10 µM.

`COC(=O)NC1CCC(N/C(=N\C(=O)c2ccc(Cl)cc2)Nc2cc(F)cc(Cl)c2)CC1` (centres unmarked) [Compound 166]: the EC50 in the assay on Ramos cells is less than 10 µM. The IC50 against F1F0-ATPase is less than 10 µM.

Take `O=C(/N=C(/Nc1cc(F)cc(Cl)c1)NC1CCC(NC(=O)c2ccccc2)CC1)c1ccccc1` (centres unmarked) [Compound 151]: in the assay with Ramos cells, the EC50 was less than 10 µM. For the same compound, the IC50 against F1F0-ATPase was less than 10 µM.

As to `O=C(/N=C(/Nc1cccc(Cl)c1)N[C@H]1CC[C@H](Nc2ncccn2)CC1)c1ccc(F)c(F)c1` [Compound 20], the EC50 in the assay with Ramos cells was less than 10 µM. The compound also displayed an IC50 at F1F0-ATPase of less than 10 µM.

With `O=C(/N=C(/Nc1cc(F)cc(Cl)c1)NC1CCCC(Nc2ncccn2)C1)c1ccc(F)c(F)c1` (centres unmarked) [Compound 124], the EC50 in the assay on Ramos cells is less than 10 µM. Further, the IC50 at F1F0-ATPase is less than 10 µM.

On to `CCOC(=O)N[C@H]1CC[C@H](N/C(=N\C(=O)c2ccc(F)c(F)c2)Nc2cc(C(C)(C)C)on2)CC1` [Compound 80], for which the concentration for a half-maximal effect (EC50) in the assay on Ramos cells is more than 10 µM. In addition, the IC50 against F1F0-ATPase is more than 10 µM.

In the case of `CCOC(=O)N[C@H]1CC[C@H](N/C(=N\C(=O)c2ccc(F)c(F)c2)Nc2ccccc2C2CC2)CC1` [Compound 66], the EC50 in the assay with Ramos cells was less than 10 µM. The same compound displayed an IC50 against F1F0-ATPase of less than 10 µM.

On to `O=C(/N=C(/Nc1cc(F)cc(Cl)c1)N[C@H]1CC[C@H](NC(=O)c2cccs2)CC1)c1ccc(F)c(F)c1` [Compound 139], for which the EC50 in the assay with Ramos cells is less than 10 µM. Besides, the half-inhibitory concentration (IC50) at F1F0-ATPase was less than 10 µM.

As to `CCOC(=O)N[C@H]1CC[C@H](N/C(=N\C(=O)c2ccc(F)c(F)c2)Nc2ccc(F)c(Cl)c2)CC1` [Compound 81], the EC50 in the assay with Ramos cells is less than 10 µM. In addition, the IC50 on F1F0-ATPase was less than 10 µM.

As for `O=C(/N=C(/NCc1cccc(C(F)(F)F)c1)N[C@H]1CC[C@H](Nc2ncccn2)CC1)c1ccc(F)c(F)c1` [Compound 93], the EC50 in the assay on Ramos cells was less than 10 µM. The compound also came in with an IC50 against F1F0-ATPase of less than 10 µM.

Consider `CCOC(=O)N[C@H]1CC[C@H](N/C(=N\C(=O)c2ccc(F)c(F)c2)NC2CC2)CC1` [Compound 104], for which, in the assay on Ramos cells, the EC50 is more than 10 µM. For the same compound, the IC50 on F1F0-ATPase was more than 10 µM.

Regarding `CCOC(=O)N[C@H]1CC[C@H](N/C(=N\C(=O)c2ccc(F)c(F)c2)NC(C)(C)C(F)(F)F)CC1` [Compound 105], the EC50 in the assay on Ramos cells is more than 10 µM. For the same compound, the IC50 against F1F0-ATPase is more than 10 µM.

The values above are taken from patent publication US9169199B2, “Cycloalkyl guanidine F1F0-ATPase inhibitors and therapeutic uses thereof” (Lycera Corporation, priority 2010, dated 2015).
